Patent US20210030703A1, “USE OF CALORIC RESTRICTION MIMETICS FOR POTENTIATING CHEMO-IMMUNOTHERAPY FOR THE TREATMENT OF CANCERS” (INSERM (INSTITUT NATIONAL DE LA SANTÉ ET DE LA RECHERCHE …, priority 2018, published 2021)

Key:
[1] = background, reference (9); cited from earlier work
MCA205 fibrosarcoma [2] = assay: Subcutaneous MCA205 fibrosarcoma: tumor growth, cure and survival under chemo-immunotherapy; assay type: in vivo, C57B1/6 mice
MCA205 fibrosarcoma [3] = assay: as above; assay type: in vivo, C57B1/6 mice; conditions: for Efficacy of MTX + ICIs (anti-PD-1 plus anti-CTLA-4) chemo-immunotherapy when the CRM is added: figure legends FIG. 2, 3, 4, 6
Protocol: Mouse strain and housing. Six- to 8-week-old wild-type female C57B1/6 mice were obtained from Envigo RMS SARL (Gannat, France). Animals were maintained in specific pathogen-free conditions in a temperature-controlled environment with 12 h light, 12 h dark cycles and received food and water ad libitum (unless precised otherwise). Animal experiments were in compliance with the EU Directive 63/2010 and approved by the Ethical Committee of the Cordeliers Research Center (Paris, France). All mouse experiments were randomized and blinded, and sample sizes were calculated to detect a statistically significant effect.
In vivo experimentations. Tumor engraftment was performed through subcutaneous injection of 3×10^5 MCA205 fibrosarcoma tumor cells (in 100 μl PBS) in the right flank of the mice. Tumor volume was monitored using a digital caliper and calculated according to the formula: volume=length×width×height/8×4/3 pi. When tumor reached 20 mm^3 on average, mice underwent fasting (48 hours without food but ad libitum access to water) or were given caloric restriction mimetics (CRMs) such as aspirin (Asp; 10 mg/kg i.p. in 200 μl phosphate buffered saline [PBS] five times per week), hydroxycitrate (HC; 5 mg/ml in drinking water daily) or spermidine (Spd; 50 mg/kg i.p. in 200 μl Earle's balanced salt solution three times per week), or were treated with mitoxantrone (MTX; 5.17 mg/kg i.p. in 200 μl PBS), or with the immune checkpoint inhibitors (ICIs) anti-PD-1 (10 mg/kg i.p. in 200 μl PBS) and/or anti-CTLA-4 (5 mg/kg i.p. in 200 μl PBS). Tumor size was carefully monitored up to 50 days post-MTX. Antitumor immunity induced by the treatment in cured mice was challenged by subcutaneously re-engrafting the same tumor (3×10^5 syngeneic MCA205 fibrosarcoma cells) in one flank while an antigenically unrelated cancer (3×10^5 syngeneic TC1 lung carcinoma cells) was implanted into the contralateral flank.
Statistical analyses. For tumor size comparison, Student unpaired t test or one-way ANOVA (Holm-Sidak) were performed. All statistical analyses were performed using GraphPad Prism version 6 for Windows (GraphPad Software, La Jolla, Calif., USA). Differences were considered significant when p value<0.05.

[4] = test system: MCA205 fibrosarcoma cells; assay: Rechallenge of cured mice with the same tumor (MCA205); assay type: in vivo, C57B1/6 mice; conditions: mice cured from MCA205 following MTX+ICIs+Spd treatment (FIG. 4G)
Protocol: (§1) In vivo experimentations. Tumor engraftment was performed through subcutaneous injection of 3×10^5 MCA205 fibrosarcoma tumor cells (in 100 μl PBS) in the right flank of the mice. […] Tumor size was carefully monitored up to 50 days post-MTX. Antitumor immunity induced by the treatment in cured mice was challenged by subcutaneously re-engrafting the same tumor (3×10^5 syngeneic MCA205 fibrosarcoma cells) in one flank while an antigenically unrelated cancer (3×10^5 syngeneic TC1 lung carcinoma cells) was implanted into the contralateral flank.

TC1 lung carcinoma cells = assay: Rechallenge of cured mice with antigenically unrelated TC1 cells in the contralateral flank; assay type: in vivo, C57B1/6 mice; conditions: mice cured from MCA205 following MTX+ICIs+Spd treatment (FIG. 4G)
Protocol: as §1

[5] = test system: immune infiltrate of MCA205 tumors; assay: Immunophenotyping of the tumor immune infiltrate by flow cytometry; assay type: in vivo, C57B1/6 mice; conditions: data not shown
Protocol: 3 or 11 days post-chemotherapy (d3 or d11), mice were euthanized and the tumors were withdrawn and placed in gentleMACS C tubes (ref 130-096-334 from Miltenyi BiotecTM) previously filled with 1 ml of DMEM or RPMI medium, and immediately put on ice. […] Then, cells were stained with a live dead dye (ref L34959 from ThermoFisher ScientificTM) and an FCblock receptor targeting antibody. For the surface stainings, several anti-mouse fluorochrome-coupled antibodies were employed, that were for 1) myeloid cells “staining 1”: anti-CD45 APC-Fire750 (clone 30E-11, ref 130154 BiolegendTM), anti-Ly-6G PE (clone 1A8, ref 551461 BDTM), anti-Ly-6C FITC (clone AL-21, ref 553104, BDTM), anti-CD11b V450 (clone M1/70, ref 560455 BDTM), anti-CD11c PE-Cy7 (clone HL3, ref 558470 BDTM), anti-CD80 PerCP-Cy5.5 (16-10A1, ref 104722 BiolegendTM), and anti-MHC-II APC (clone M5/114.15.2, ref 107614 BiolegendTM) 2) T-cells “staining 2”: anti-CD3 APC (clone 17A2, ref 17-0032-82 eBioscienceTM), anti-CD8 PE (clone 53-6.7, ref 553032 BDTM), anti-CD4 PerCP-Cy5.5 (clone RM4-5, ref 45-0042-82 eBioscienceTM), anti-CD25 PE-Cy7 (clone PC61.5, ref 25-0251-82 InvitrogenTM), anti-ICOS BV421 (clone 7E.17G9, ref 564070 BDTM) and anti-PD-1 APC-Fire750 (clone 29F.1Al2, ref 135240 BiolegendTM) 3) PD-L1 expressing-cells “staining 4”: anti-CD45 AlexaFluor647 (clone 30E-11, ref 103-124 BiolegendTM), anti-PD-L1 BV421 (clone MIHS, ref 564716 BDTM) and anti-PD-L2 PE-Dazzle594 (clone TY25, ref 107215 BiolegendTM) 4) NKT cells “staining 5”: anti-CD3 FITC (clone 17A2, ref 11-00-32-82 eBioscienceTM) and anti-NK1.1 PerCP-Cy5.5 (clone PK136, ref 551114 BDTM). After the fixation and permeabilization of the cells (thanks to the Cytofix/Cytoperm kit, ref 554714 BDTM for stainings 1, 3, 4 and 5; and with the Foxp3/Transcription Factor kit, ref 00-5523-00 eBioscienceTM for staining 2), intracellular stainings were performed using for “staining 2”: anti-FoxP3 FITC (clone FJK-16s, ref 11-5773-82 eBioscienceTM) and for “staining 3”: anti-IFNg APC (clone XMG1.2, ref 505-810 BiolegendTM), anti-TNFα APC-Cy7 (clone MP6-XT22, ref 506344 BiolegendTM) and anti-IL-2 PE-Dazzle 594 (clone JES6-5H4, ref 503-840 BiolegendTM). Finally, cells were resuspended in FACS buffer and analyzed on a flow cytometer BD LSR II.

whole MCA205 tumors = assay: RNA-seq analyses of whole tumors; assay type: in vivo, C57B1/6 mice; conditions: day 3 post-chemotherapy (MTX); data not shown

Q: With `CC1=NN(c2ccc(C(=O)O)cc2)C(=O)/C1=C\c1ccc(-c2cc(C)c(C)cc2[N+](=O)[O-])o1` [C646] as the compound, how does the “Efficacy of anticancer chemotherapy with immunogenic cell death (ICD) inducers” value [1] read?
A: able to improve the efficacy

Q: With `O=C1[O][Pt]2([NH][C@@H]3CCCC[C@H]3[NH]2)[O]C1=O` [OXA, [(1R,2R.)-cyclohexane-1,2-diamine](ethanedioato-O,O′)platinum(II)] as the compound, how does the Cure rate (MCA205 fibrosarcoma [2]; OXA+PD-1 blockade) read?
A: 40%

Q: With `O=C(O)C[C@]1(O)C[C@H](CCCCCCc2ccc(Cl)cc2Cl)OC1=O` [SB2049901, (3R,5S)-re1-5-[6-(2,4-Dichlorophenyl)hexyl]tetrahydro-3-hydroxy-2-oxo-3-furanacetic acid] as the compound, how does the “Efficacy of anticancer chemotherapy with immunogenic cell death (ICD) inducers” value [1] read?
A: able to improve the efficacy

Q: Which results are given for `NCCCCNCCCN` [spermidine, H2N—(CH2)3-NH(CH2)4-NH2]?
A: Tumor-free mice (MCA205 fibrosarcoma [3]; MTX pre-treatment associated with the CRM, then CTLA-4/PD-1-blocking antibodies (FIG. 6)): 8 out of 10; Efficacy of MTX + ICIs (anti-PD-1 plus anti-CTLA-4) chemo-immunotherapy when the CRM is added (MCA205 fibrosarcoma [3]): significantly improves tumor outcome; Efficacy of MTX + ICIs (anti-PD-1 plus anti-CTLA-4) chemo-immunotherapy when the CRM is added (MCA205 fibrosarcoma [3]; listed as Spd): further enhanced; Response to CTLA-4/PD-1-blockade (MCA205 fibrosarcoma [3]; pretreated with the CRM alone (without MTX), data not shown): did not respond; Cure of established tumor (MCA205 fibrosarcoma [3]; spermidine i.p. 3 times per week + MTX chemotherapy + dual CTLA-4/PD-1-targeting immunotherapy): 7 out of 9; Outgrowth of reinjected MCA205 cancer cells [4]: did not led to the outgrowth; Tumor formation by TC1 cancer cells injected into the opposite flank (TC1 lung carcinoma cells): yielded tumors; Increase in the density of total CD3+ and CD8+ T cell infiltrate ([5]; combined with MTX): neither HC nor spermidine; Myeloid infiltrate ([5]; day 3 post-chemotherapy (MTX)): no major increments; Macrophage subpopulation with an M1 phenotype (Ly6G-F4/80+CD11c-CD11b+CD38+) ([5]; day 11 post-MTX): expansion; Evidence of local immunostimulation (whole MCA205 tumors): failed to yield convincing evidence; Cure rate (MCA205 fibrosarcoma [2]; CRM added to OXA+PD-1 blockade): 70%; Cured mice (MCA205 fibrosarcoma [2]; CRM added to OXA+PD-1 blockade): 7 out of 10; Efficacy of OXA and anti-PD-1 combination when the CRM is added (MCA205 fibrosarcoma [2]; figure legend FIG. 7): further enhanced; Efficacy of anticancer chemotherapy with immunogenic cell death (ICD) inducers [1]: able to improve the efficacy
